{
  "source": "paper PMC6102326",
  "about": "“Characterization of an Omega-3 Desaturase From Phytophthora parasitica and Application for Eicosapentaenoic Acid Production in Mortierella alpina” (Frontiers in Microbiology, 2018)",
  "molecular_target": "T1, PPD17 (omega-3 desaturase; delta-17 desaturase) (Phytophthora nicotianae, UniProt V9F8I2)",
  "T1 construct": "gene F443_08426; full length, 361 residues, codon-optimized oPPD17 in pYES2/NT C (His-tagged), expressed in S. cerevisiae INVSc1; 4 predicted TM domains; C-terminal KTKST; His boxes HDAGH, HRHHH, HQIHH",
  "T1 sequence (V9F8I2 1-361)": "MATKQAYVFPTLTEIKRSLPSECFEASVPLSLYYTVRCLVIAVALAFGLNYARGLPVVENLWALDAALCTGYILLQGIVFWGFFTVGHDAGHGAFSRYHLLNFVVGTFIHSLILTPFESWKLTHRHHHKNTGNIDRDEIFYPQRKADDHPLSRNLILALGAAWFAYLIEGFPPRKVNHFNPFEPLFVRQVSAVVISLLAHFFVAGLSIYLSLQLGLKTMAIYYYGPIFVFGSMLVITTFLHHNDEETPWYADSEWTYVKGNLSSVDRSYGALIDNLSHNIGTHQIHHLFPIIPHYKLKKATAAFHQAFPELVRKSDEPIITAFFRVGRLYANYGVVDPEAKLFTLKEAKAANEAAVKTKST",
  "experiment": "fatty acid feeding of yeast expressing PPD17, FAME analysis by GC-MS",
  "type": "cell-based",
  "conditions": "free acid fed to culture, 0.2 mM, 12 °C and 28 °C; product eicosatetraenoic acid",
  "data": [
    {"smiles": "CCCCC/C=C\\C/C=C\\C/C=C\\CCCCCCC(=O)O", "note": "[DGLA, dihomo-gamma-linolenic acid]", "values": [
      {"measurement": "fatty acid feeding of yeast expressing PPD17, FAME analysis by GC-MS", "value": "PPD17 had stronger substrate preference for C20-PUFA substrate AA and DGLA"}
    ]}
  ]
}
